Assay results reported in US8679530B2 (Your Energy Systems, LLC, priority 2004, dated 2014).

Key:
[1] = intravenous administration; cited from earlier work
[2] = Case report Example 5: blood pressure in diabetic hypertensive; assay type: in vivo, human; settings: lisinopril 20 mg twice a day, over 3 days; before 188/92
Method: The patient with diabetes requiring insulin therapy also has a long history of elevated blood pressure. The blood pressure was previously controlled using lisinopril 20 mg. daily. […] The dose of lisinopril was lowered to 20 mg once a day.

SMILES | blood flow in peripheral vascular disease [1] | blood pressure [2]
N[C@@H](CCC(=O)N[C@@H](CS)C(=O)NCC(=O)O)C(=O)O [reduced glutathione, gamma-glutamyl-cysteinyl-glycine] | benefit in improving blood flow | 
NCCCC[C@H](N[C@@H](CCc1ccccc1)C(=O)O)C(=O)N1CCC[C@H]1C(=O)O [lisinopril] |  | 145/92
